Measurements reported in PMC5218480 (PLoS ONE, 2017).

System: MV-4-11 cells
Assay: Gene expression microarray analysis (Affymetrix PrimeView) and GSEA
Assay type: cell-based, human
Design: RFU PODN (11730768_x_at) / Fold change /veh PODN (11730768_x_at) / RFU LINC00158 (11744669_a_at) / Fold change /veh LINC00158 (11744669_a_at) / RFU DUSP10 (11751237_a_at) / Fold change /veh DUSP10 (11751237_a_at) / RFU ID3 (11757404_x_at) / Fold change /veh ID3 (11757404_x_at) / RFU PLEKHG5 (11737974_s_at) / Fold change /veh PLEKHG5 (11737974_s_at) / RFU LRRC4B (11730491_at) / Fold change /veh LRRC4B (11730491_at) / RFU GIMAP4 (11747438_a_at) / Fold change /veh GIMAP4 (11747438_a_at) / RFU KRT8 (11758183_x_at) / Fold change /veh KRT8 (11758183_x_at) / RFU CNN1 (11734310_a_at) / Fold change /veh CNN1 (11734310_a_at) / RFU VPS37D (11726825_at) / Fold change /veh VPS37D (11726825_at) / RFU C10orf10 (11716522_x_at) / Fold change /veh C10orf10 (11716522_x_at) / RFU KIR2DL2 /// KIR2DL4 /// KIR2DL5A /// KIR2DL5B /// KIR2DS1 /// KIR2DS2 /// KIR2DS3 /// KIR2DS4 /// KIR3DL3 /// KIR3DL3 /// KIR3DS1 (11738374_at) / Fold change /veh KIR2DL2 /// KIR2DL4 /// KIR2DL5A /// KIR2DL5B /// KIR2DS1 /// KIR2DS2 /// KIR2DS3 /// KIR2DS4 /// KIR3DL3 /// KIR3DL3 /// KIR3DS1 (11738374_at) / RFU C1QL1 (11718748_at) / Fold change /veh C1QL1 (11718748_at) / RFU TMPRSS4 (11747572_a_at) / Fold change /veh TMPRSS4 (11747572_a_at) / RFU HAMP (11756126_x_at) / Fold change /veh HAMP (11756126_x_at) / RFU RNFT2 (11725882_a_at) / Fold change /veh RNFT2 (11725882_a_at) / RFU NR4A2 (11747474_a_at) / Fold change /veh NR4A2 (11747474_a_at) / RFU ABCC12 (11746883_a_at) / Fold change /veh ABCC12 (11746883_a_at) / RFU TMEM136 (11760407_x_at) / Fold change /veh TMEM136 (11760407_x_at) / RFU CLDN22 /// WWC2 (11732394_at) / Fold change /veh CLDN22 /// WWC2 (11732394_at) / RFU HLA-DPB1 (11760878_x_at) / Fold change /veh HLA-DPB1 (11760878_x_at) / RFU SPINT1 (11716480_a_at) / Fold change /veh SPINT1 (11716480_a_at) / RFU GAP43 (11754022_s_at) / Fold change /veh GAP43 (11754022_s_at) / RFU A4GNT (11735810_at) / Fold change /veh A4GNT (11735810_at) / RFU PRB3 (11715151_x_at) / Fold change /veh PRB3 (11715151_x_at) / RFU TUBB4B (11761932_at) / Fold change /veh TUBB4B (11761932_at) / RFU CAPN14 (11732068_a_at) / Fold change /veh CAPN14 (11732068_a_at) / RFU TMCC2 (11721928_a_at) / Fold change /veh TMCC2 (11721928_a_at) / RFU IRGQ (11745062_a_at) / Fold change /veh IRGQ (11745062_a_at) / RFU FAM174B (11720279_a_at) / Fold change /veh FAM174B (11720279_a_at) / RFU TMPRSS4 (11748680_a_at) / Fold change /veh TMPRSS4 (11748680_a_at) / RFU FAM212B (11763350_a_at) / Fold change /veh FAM212B (11763350_a_at) / RFU PLEKHG5 (11743358_a_at) / Fold change /veh PLEKHG5 (11743358_a_at) / RFU ZSCAN30 (11745921_a_at) / Fold change /veh ZSCAN30 (11745921_a_at) / RFU CMKLR1 (11741424_a_at) / Fold change /veh CMKLR1 (11741424_a_at) / RFU LOC101060620 /// MAPK8IP1 (11723275_at) / Fold change /veh LOC101060620 /// MAPK8IP1 (11723275_at) / RFU SPTSSB (11747773_x_at) / Fold change /veh SPTSSB (11747773_x_at) / RFU PRSS12 (11739890_at) / Fold change /veh PRSS12 (11739890_at) / RFU BIN1 (11741810_x_at) / Fold change /veh BIN1 (11741810_x_at) / RFU WNT11 (11732464_a_at) / Fold change /veh WNT11 (11732464_a_at) / RFU C10orf10 (11716521_a_at) / Fold change /veh C10orf10 (11716521_a_at) / RFU C5orf56 (11738089_at) / Fold change /veh C5orf56 (11738089_at) / RFU CYB561 (11721691_x_at) / Fold change /veh CYB561 (11721691_x_at) / RFU ANKRD19P (11752326_a_at) / Fold change /veh ANKRD19P (11752326_a_at) / RFU OR2T12 /// OR2T33 /// OR2T8 (11738714_s_at) / Fold change /veh OR2T12 /// OR2T33 /// OR2T8 (11738714_s_at) / RFU VCAN (11748164_a_at) / Fold change /veh VCAN (11748164_a_at) / RFU JSRP1 (11732532_at) / Fold change /veh JSRP1 (11732532_at) / RFU KRTAP10-11 (11738290_x_at) / Fold change /veh KRTAP10-11 (11738290_x_at) / RFU MYO3A (11730013_a_at) / Fold change /veh MYO3A (11730013_a_at) / RFU EBF3 (11725865_a_at) / Fold change /veh EBF3 (11725865_a_at) / RFU CAMK2N1 (11719241_x_at) / Fold change /veh CAMK2N1 (11719241_x_at) / RFU C5orf56 (11738088_a_at) / Fold change /veh C5orf56 (11738088_a_at) / RFU OLFML3 (11715873_a_at) / Fold change /veh OLFML3 (11715873_a_at) / RFU LOC100653217 /// NTM (11731650_a_at) / Fold change /veh LOC100653217 /// NTM (11731650_a_at) / RFU MAPK11 (11762145_a_at) / Fold change /veh MAPK11 (11762145_a_at) / RFU FIZ1 (11724087_x_at) / Fold change /veh FIZ1 (11724087_x_at) / RFU OASL (11726364_x_at) / Fold change /veh OASL (11726364_x_at) / RFU SOX15 (11748057_x_at) / Fold change /veh SOX15 (11748057_x_at) / RFU CD79A (11719716_a_at) / Fold change /veh CD79A (11719716_a_at) / RFU HIST1H1D (11736915_at) / Fold change /veh HIST1H1D (11736915_at) / RFU CASKIN2 (11723855_a_at) / Fold change /veh CASKIN2 (11723855_a_at) / RFU LOC730098 (11760151_x_at) / Fold change /veh LOC730098 (11760151_x_at) / RFU OR4N2 (11742367_at) / Fold change /veh OR4N2 (11742367_at) / RFU PRRT2 (11749266_a_at) / Fold change /veh PRRT2 (11749266_a_at) / RFU SNX32 (11753110_a_at) / Fold change /veh SNX32 (11753110_a_at) / RFU CDHR5 (11726645_a_at) / Fold change /veh CDHR5 (11726645_a_at) / RFU RCAN1 (11760418_a_at) / Fold change /veh RCAN1 (11760418_a_at) / RFU FAM167A (11723789_a_at) / Fold change /veh FAM167A (11723789_a_at) / RFU FAM26E (11764081_at) / Fold change /veh FAM26E (11764081_at) / RFU ISYNA1 (11749810_s_at) / Fold change /veh ISYNA1 (11749810_s_at) / RFU ACY1 (11761880_at) / Fold change /veh ACY1 (11761880_at) / RFU 11764098_at / Fold change /veh 11764098_at / RFU SAMD14 (11745864_x_at) / Fold change /veh SAMD14 (11745864_x_at) / RFU NPB (11741838_a_at) / Fold change /veh NPB (11741838_a_at) / RFU TMPRSS6 (11731388_a_at) / Fold change /veh TMPRSS6 (11731388_a_at) / RFU KRTAP10-2 (11738614_at) / Fold change /veh KRTAP10-2 (11738614_at) / RFU ARHGAP8 /// PRR5-ARHGAP8 (11727945_x_at) / Fold change /veh ARHGAP8 /// PRR5-ARHGAP8 (11727945_x_at) / RFU KRTAP5-7 /// NADSYN1 (11734609_at) / Fold change /veh KRTAP5-7 /// NADSYN1 (11734609_at) / RFU RASL12 (11751679_a_at) / Fold change /veh RASL12 (11751679_a_at) / RFU CDKN2B (11736163_a_at) / Fold change /veh CDKN2B (11736163_a_at) / RFU PRF1 (11729649_at) / Fold change /veh PRF1 (11729649_at) / RFU, ZNF638 /// ZNF638-IT1 / Fold change vs veh, ZNF638 /// ZNF638-IT1 / RFU, PANK3 / Fold change vs veh, PANK3 / RFU, SH3YL1 / Fold change vs veh, SH3YL1 / RFU, ZEB2 / Fold change vs veh, ZEB2 / RFU, NRIP1 / Fold change vs veh, NRIP1 / RFU, PTTG1IP / Fold change vs veh, PTTG1IP / RFU, CAPN2 / Fold change vs veh, CAPN2 / RFU, MED14 / Fold change vs veh, MED14 / RFU, SNORA58 / Fold change vs veh, SNORA58 / RFU, C1orf63 / Fold change vs veh, C1orf63 / RFU, LRRFIP1 / Fold change vs veh, LRRFIP1 / RFU, NDUFAF7 / Fold change vs veh, NDUFAF7 / RFU, SLC12A2 / Fold change vs veh, SLC12A2 / RFU, IBTK / Fold change vs veh, IBTK / RFU, ESF1 / Fold change vs veh, ESF1 / Fold change vs veh, TMEM50B / RFU, TAOK1 / Fold change vs veh, TAOK1 / RFU, ACBD3 / Fold change vs veh, ACBD3 / RFU, TMA16 / Fold change vs veh, TMA16 / RFU, RWDD3 / Fold change vs veh, RWDD3 / RFU, BCAT1 / Fold change vs veh, BCAT1 / RFU, EDEM3 / Fold change vs veh, EDEM3 / RFU, TMEM33 / Fold change vs veh, TMEM33 / RFU, WDR75 / Fold change vs veh, WDR75 / RFU, AHCTF1 / Fold change vs veh, AHCTF1 / RFU, TFRC / Fold change vs veh, TFRC / RFU, ZDHHC17 / Fold change vs veh, ZDHHC17 / RFU, NOM1 / Fold change vs veh, NOM1 / RFU, ARL8B / Fold change vs veh, ARL8B / RFU, ZBTB11 / Fold change vs veh, ZBTB11 / RFU, TAMM41 / Fold change vs veh, TAMM41 / RFU, KIAA1704 /// LOC100996395 / Fold change vs veh, KIAA1704 /// LOC100996395 / RFU, ING1 / Fold change vs veh, ING1 / RFU, TRMT61B / Fold change vs veh, TRMT61B / RFU, FUBP3 / Fold change vs veh, FUBP3 / RFU, TP53 / Fold change vs veh, TP53 / RFU, TNKS2 / Fold change vs veh, TNKS2 / RFU, ZFP14 / Fold change vs veh, ZFP14 / RFU, ACTR2 / Fold change vs veh, ACTR2 / RFU, PPP3R1 / Fold change vs veh, PPP3R1 / RFU, PIK3R1 / Fold change vs veh, PIK3R1 / RFU, HNRNPA1 / Fold change vs veh, HNRNPA1 / RFU, RNF170 / Fold change vs veh, RNF170 / RFU, ZNF28 / Fold change vs veh, ZNF28 / RFU, RNGTT / Fold change vs veh, RNGTT / RFU, OGT / Fold change vs veh, OGT / RFU, BRD1 / Fold change vs veh, BRD1 / RFU, MARS / Fold change vs veh, MARS / RFU, ZNF655 / Fold change vs veh, ZNF655 / RFU, FAHD1 / Fold change vs veh, FAHD1 / RFU, BDP1 / Fold change vs veh, BDP1 / RFU, LRRCC1 / Fold change vs veh, LRRCC1 / RFU, ARID1A / Fold change vs veh, ARID1A / RFU, ZNF146 / Fold change vs veh, ZNF146 / RFU, ZNF330 / Fold change vs veh, ZNF330 / RFU, GPN3 / Fold change vs veh, GPN3 / RFU, C9orf123 / Fold change vs veh, C9orf123 / RFU, N4BP2L2 / Fold change vs veh, N4BP2L2 / RFU, ARFIP1 / Fold change vs veh, ARFIP1 / RFU, FAM179B / Fold change vs veh, FAM179B / RFU, BCL10 / Fold change vs veh, BCL10 / RFU, UHRF1BP1L / Fold change vs veh, UHRF1BP1L / RFU, BET1 / Fold change vs veh, BET1 / RFU, CNOT2 / Fold change vs veh, CNOT2 / RFU, ZNF268 / Fold change vs veh, ZNF268 / Fold change vs veh, ZNF507 / RFU, DGCR2 / Fold change vs veh, DGCR2 / RFU, WDSUB1 / Fold change vs veh, WDSUB1 / Fold change vs veh, HSP90B1 /// MIR3652 / RFU, ADSS / Fold change vs veh, ADSS / RFU, GK / Fold change vs veh, GK / RFU, ZNF148 / Fold change vs veh, ZNF148 / RFU, TAF9 / Fold change vs veh, TAF9 / RFU, SLC1A5 / Fold change vs veh, SLC1A5 / RFU, SLMO2 / Fold change vs veh, SLMO2 / RFU, ABCC4 / Fold change vs veh, ABCC4 / RFU, LOC101060439 /// RAP1B / Fold change vs veh, LOC101060439 /// RAP1B / RFU, RFX7 / Fold change vs veh, RFX7 / RFU, GTPBP10 / Fold change vs veh, GTPBP10 / RFU, CNEP1R1 / Fold change vs veh, CNEP1R1 / RFU, BIVM-ERCC5 /// ERCC5 / Fold change vs veh, BIVM-ERCC5 /// ERCC5 / RFU, ILF3 / Fold change vs veh, ILF3 / RFU 11762660_at / Fold change /veh 11762660_at / RFU VCAN (11757783_s_at) / Fold change /veh VCAN (11757783_s_at) / RFU DDX43 (11728927_at) / Fold change /veh DDX43 (11728927_at) / RFU KRT8 (11758188_x_at) / Fold change /veh KRT8 (11758188_x_at) / RFU NKD1 (11759106_at) / Fold change /veh NKD1 (11759106_at) / RFU SRD5A1 (11742802_a_at) / Fold change /veh SRD5A1 (11742802_a_at) / RFU TPSAB1 /// TPSB2 (11721975_s_at) / Fold change /veh TPSAB1 /// TPSB2 (11721975_s_at) / RFU GSTM3 (11746129_a_at) / Fold change /veh GSTM3 (11746129_a_at) / RFU IL23R (11737362_x_at) / Fold change /veh IL23R (11737362_x_at) / RFU TMEM51 (11727254_a_at) / Fold change /veh TMEM51 (11727254_a_at) / RFU PIWIL2 (11732686_x_at) / Fold change /veh PIWIL2 (11732686_x_at) / RFU ORM1 (11744905_x_at) / Fold change /veh ORM1 (11744905_x_at) / RFU CCDC152 (11743942_at) / Fold change /veh CCDC152 (11743942_at) / RFU ECM1 (11717891_a_at) / Fold change /veh ECM1 (11717891_a_at) / RFU IL23R (11748794_a_at) / Fold change /veh IL23R (11748794_a_at) / RFU TNFAIP8L3 (11732012_x_at) / Fold change /veh TNFAIP8L3 (11732012_x_at) / RFU MBOAT4 (11741988_at) / Fold change /veh MBOAT4 (11741988_at) / RFU 11764193_at / Fold change /veh 11764193_at / RFU TMEM53 (11763286_at) / Fold change /veh TMEM53 (11763286_at) / RFU MAGEB2 (11727129_at) / Fold change /veh MAGEB2 (11727129_at) / RFU TMEM200A (11744735_a_at) / Fold change /veh TMEM200A (11744735_a_at) / RFU CCDC152 (11751479_a_at) / Fold change /veh CCDC152 (11751479_a_at) / RFU FAM211A (11726209_a_at) / Fold change /veh FAM211A (11726209_a_at) / RFU RGS16 (11746705_a_at) / Fold change /veh RGS16 (11746705_a_at) / RFU VCAN (11755009_s_at) / Fold change /veh VCAN (11755009_s_at) / RFU RHOB (11743442_s_at) / Fold change /veh RHOB (11743442_s_at) / RFU RGS16 (11720943_a_at) / Fold change /veh RGS16 (11720943_a_at) / RFU RGS16 (11720944_at) / Fold change /veh RGS16 (11720944_at) / RFU, VPS4B / Fold change vs veh, VPS4B / RFU, CREB1 / Fold change vs veh, CREB1 / RFU, DNAJC13 / Fold change vs veh, DNAJC13 / RFU, GNAQ / Fold change vs veh, GNAQ / RFU, CDK5R1 / Fold change vs veh, CDK5R1 / RFU, ZRANB3 / Fold change vs veh, ZRANB3 / RFU, CUL4A / Fold change vs veh, CUL4A / RFU, CCNY / Fold change vs veh, CCNY / RFU, UFL1 / Fold change vs veh, UFL1 / RFU, COG3 / Fold change vs veh, COG3 / RFU, DIAPH2 / Fold change vs veh, DIAPH2 / RFU, SKA2 / Fold change vs veh, SKA2 / RFU, AFF3 / Fold change vs veh, AFF3 / RFU, LMF1 / Fold change vs veh, LMF1 / RFU, IPO11 / Fold change vs veh, IPO11 / RFU, DFFB / Fold change vs veh, DFFB / RFU, FOXP1 / Fold change vs veh, FOXP1 / RFU, CARD8 / Fold change vs veh, CARD8 / RFU, STRN3 / Fold change vs veh, STRN3 / RFU, ADK / Fold change vs veh, ADK / RFU, RASSF2 / Fold change vs veh, RASSF2 / RFU, WIPF1 / Fold change vs veh, WIPF1 / RFU, LARP1B / Fold change vs veh, LARP1B / RFU, RASA1 / Fold change vs veh, RASA1 / RFU, RB1 / Fold change vs veh, RB1 / RFU, PPFIA1 / Fold change vs veh, PPFIA1 / RFU, MAT2A / Fold change vs veh, MAT2A / RFU, CCT5 / Fold change vs veh, CCT5 / RFU, WDR92 / Fold change vs veh, WDR92 / RFU, CUX1 / Fold change vs veh, CUX1 / RFU, TTC7A / Fold change vs veh, TTC7A / RFU, TMEM135 / Fold change vs veh, TMEM135 / RFU, DEPTOR / Fold change vs veh, DEPTOR / RFU, CPM / Fold change vs veh, CPM / RFU, DNAJB6 / Fold change vs veh, DNAJB6 / RFU, CACNA2D3 / Fold change vs veh, CACNA2D3 / RFU, DTX4 / Fold change vs veh, DTX4 / RFU, TFCP2 / Fold change vs veh, TFCP2 / RFU, GMCL1 /// GMCL1P1 / Fold change vs veh, GMCL1 /// GMCL1P1 / RFU, AEBP2 / Fold change vs veh, AEBP2 / RFU, SNHG1 /// SNORD22 /// SNORD25 /// SNORD26 /// SNORD27 /// SNORD28 /// SNORD29 /// SNORD31 / Fold change vs veh, SNHG1 /// SNORD22 /// SNORD25 /// SNORD26 /// SNORD27 /// SNORD28 /// SNORD29 /// SNORD31 / Fold change (Aza/veh), C12orf56 (ProbeSet 11735607_a_at) / Fold change (ACY-1035/veh), C12orf56 (ProbeSet 11735607_a_at) / Fold change (Aza/veh), FGFR1OP (ProbeSet 11751329_s_at) / Fold change (ACY-1035/veh), FGFR1OP (ProbeSet 11751329_s_at) / Fold change (Aza/veh), VPS36 (ProbeSet 11739960_a_at) / Fold change (ACY-1035/veh), VPS36 (ProbeSet 11739960_a_at) / RFU SYPL1 (11715823_x_at) / Fold change /veh SYPL1 (11715823_x_at) / RFU IGFBP7 (11715501_s_at) / Fold change /veh IGFBP7 (11715501_s_at) / RFU REEP3 (11722064_at) / Fold change /veh REEP3 (11722064_at) / RFU IGLL1 (11728026_x_at) / Fold change /veh IGLL1 (11728026_x_at): dose or concentration left out as unconfirmed
Details: gene FGFR1OP; ACY-1035 vs DMSO; LIST F

With `Nc1ccc(-c2cccs2)cc1NC(=O)c1ccc2c(c1)cc(C1CC1)n2CCN1CCOCC1` [ACY-1035] the “Fold change (ACY-1035/veh), FGFR1OP (ProbeSet 11751329_s_at)” value was 0.57.
